The subject of experiment [1] is Streptococcus pyogenes. Briefly: MIC test, microdilution method (CLSI). It is filed as cell-based. The note with it: ATCC strain of Streptococcus pyogenes, 18-20 h at 37° C., MIC = concentration at which growth inhibited ≥80%, read-out: Activity (MIC) Spy. The method, then:
(§1) Experimental Procedure: MIC Test. Microdilution Method
(§2) To evaluate the antimicrobial activity of the compounds, ATCC strains of Streptococcus pneumoniae and Streptococcus pyogenes were used. The minimal inhibitory concentrations (MICs) of the compounds were determined by microdilution assays, according to CLSI methodology.
(§3) 3 mg of compound were weighted in a 4 mL glass vials and were dissolved in properly volume of DMSO 100% (Reference: D2438-50, Sigma) to reach 12.8 mg/mL. (Cmax.).
(§4) In 96-well plates U-form (Reference: 650161, Greiner Bio-One): • Dispense 50 μL of the assayed compounds prepared in DMSO 100% at 12.8 mg/mL in each well in column 1. (8 different compounds per plate, row 1 to row 8) • Dispense 25 μL of DMSO 100% in all wells in columns 2 to 12. • With a multichannel pipette, aspire 25 μL of column 1 and dispense in column 2. Mix the contents in column 2 several times and aspire 25 uL. Dispense in column 3. • Repeat the process until column 10. In column 10, aspire 25 μL of the content and discard. • The final mother plate map is (all values in mg/mL)
(§5) In 96-well plates U-form: • With a multichannel pipette (in dispensing mode), aspire a properly volume (consider the number of copies of the mother plate do you want to perform) of all wells in mother plate, to dispense 1 μL/well in daughter plates.
(§6) Bacterial suspension will be prepared and normalized to 0.5 McFarland turbidity standard (approximately 10^8 CFU/mL) using a physiological saline solution (sodium chloride 0,9%). Then, prepared a 1/1000 dilution (approximately 10^5 CFU/mL) of the suspension in appropriate media (CLSI Standard) and inoculate 99 μL in each well in daughter plates (only columns 1 to 11) using a multidrop™ Combi Reagent Dispenser. In column 12, only 99 μL of media will be dispense as a sterility control.
(§7) The final plate map is (all values in μg/mL):
(§8) Plates will be incubated 18-20 h at 37° C. MIC values will be considered as the concentration of compounds at which the growth will be inhibited=>≥80%, compared to growth control.

Experiment [2] has as its system Streptococcus pneumoniae. Briefly: MIC test, microdilution method (CLSI). In kind it is cell-based. The conditions noted are these: ATCC strain of Streptococcus pneumoniae, 18-20 h at 37° C., MIC = concentration at which growth inhibited ≥80%, read-out: Activity (MIC) Spn. The method, then:
as §1, §2, §3, §4, §5, §6, §7, §8

Molecules are shown by their SMILES. Converted amounts (≈) assume the structure as drawn.

MIC data for six compounds are collected here from patent publication US20260225998A1, “NEW COMPOUNDS FOR TREATING STREPTOCOCCUS INFECTIONS” (AB2 THERAPEUTICS, S. L., priority 2023, published 2026).

For `NC(=O)[C@@H](O)CNC(=O)c1ccc(O[C@@H](CC2CCOCC2)c2ccc(-c3ccc(C(F)(F)F)cc3)cc2)cc1` [Example 4, N-((S)-3-amino-2-hydroxy-3-oxopropyl)-4-((S)-2-(tetrahydro-2H-pyran-4-yl)-1-(4′-(trifluoromethyl)-[1,1′-biphenyl]-4-yl)ethoxy)benzamide], the MIC in experiment [1] and in experiment [2] was > 128 µg/mL throughout.

With `NC(=O)[C@@H](O)CNC(=O)c1ccc(O[C@@H](CC2CCCCC2)c2cccc(-c3ccc(C(F)(F)F)cc3)c2)cc1` [Example 2, N-((S)-3-Amino-2-hydroxy-3-oxopropyl)-4-((S)-2-cyclohexyl-1-(4′-(trifluoromethyl)-[1,1′-biphenyl]-3-yl)ethoxy)benzamide], the MIC in experiment [1] amounted to 1 µg/mL (≈ 1.8 µM); in experiment [2], 2 µg/mL (≈ 3.61 µM).

`NC(=O)[C@@H](O)CNC(=O)c1ccc(O[C@@H](CC2CCCCC2)c2ccc(-c3ccc(F)cc3)cc2)cc1` [Example 1, N-((S)-3-Amino-2-hydroxy-3-oxopropyl)-4-((S)-2-cyclohexyl-1-(4′-fluoro-[1,1′-biphenyl]-4-yl)ethoxy)benzamide]: the MIC in experiment [1] and in experiment [2] was 4 µg/mL (≈ 7.93 µM) in each case.

`CC(C)[C@H](Oc1ccc(C(=O)NC[C@H](O)C(N)=O)cc1)c1ccc(-c2ccc(C(F)(F)F)cc2)cc1` [Example 6, N-((S)-3-amino-2-hydroxy-3-oxopropyl)-4-((S)-2-methyl-1-(4′-(trifluoromethyl)-[1,1′-biphenyl]-4-yl)propoxy)benzamide]: the MIC in experiment [1] and in experiment [2] was 4 µg/mL (≈ 7.99 µM) each time.

As for `CNC(=O)[C@@H](O)CNC(=O)c1ccc(O[C@@H](CC2CCCCC2)c2cccc(-c3ccc(C(F)(F)F)cc3)c2)cc1` [Example 8, 4-((S)-2-cyclohexyl-1-(4′-(trifluoromethyl)-[1,1′-biphenyl]-3-yl)ethoxy)-N-((S)-2-hydroxy-3-(methylamino)-3-oxopropyl)benzamide], the MIC in experiment [1] and in experiment [2] was 4 µg/mL (≈ 7.03 µM) throughout.

Regarding `CC(C)C[C@H](Oc1ccc(C(=O)NC[C@H](O)C(N)=O)cc1)c1ccc(-c2ccc(C(F)(F)F)cc2)cc1` [Example 5, N-((S)-3-amino-2-hydroxy-3-oxopropyl)-4-((S)-3-methyl-1-(4′-(trifluoromethyl)-[1,1′-bipheny]-4-yl)butoxy)benzamide], the MIC in experiment [1] and in experiment [2] was > 128 µg/mL throughout.
